Measurements from ChEMBL document CHEMBL4507275, “Data for DCP probe BI-2545” (2021).

What was measured:
Conditions in all cases: Compound concentration 1000.0 nM
[1] = target: Serine/threonine-protein kinase WNK1 (Homo sapiens) (UniProt Q9H4A3)
[2] = system: Receptor-type tyrosine-protein kinase FLT3 (Homo sapiens), P36888 [D835V]
[3] = target: Calcium/calmodulin-dependent protein kinase type 1B (Homo sapiens) (UniProt Q6P2M8)
[4] = target: Phosphorylase b kinase gamma catalytic chain, skeletal muscle/heart isoform (Homo sapiens) (UniProt Q16816)
[5] = target: Serine/threonine-protein kinase PAK 2 (Homo sapiens) (UniProt Q13177)
[6] = target: Serine/threonine-protein kinase 17B (Homo sapiens) (UniProt O94768)
[7] = system: Tyrosine-protein kinase ABL1 (Homo sapiens), P00519 [Y253F]
[8] = target: Serine/threonine-protein kinase PAK 5 (Homo sapiens) (UniProt Q9P286)
[9] = target: Cyclin-dependent kinase 3 (Homo sapiens) (UniProt Q00526)
[10] = target: Serine/threonine-protein kinase 38 (Homo sapiens) (UniProt Q15208)
[11] = target: Insulin-like growth factor 1 receptor (Homo sapiens) (UniProt P08069)
[12] = target: Ephrin type-B receptor 3 (Homo sapiens) (UniProt P54753)
[13] = target: Cyclin-dependent kinase 5 (Homo sapiens) (UniProt Q00535)
[14] = target: Mitogen-activated protein kinase kinase kinase kinase 3 (Homo sapiens) (UniProt Q8IVH8)
[15] = target: Serine/threonine-protein kinase D2 (Homo sapiens) (UniProt Q9BZL6)
[16] = target: Non-receptor tyrosine-protein kinase TYK2 (Homo sapiens) (UniProt P29597)
[17] = system: Phosphatidylinositol 4,5-bisphosphate 3-kinase catalytic subunit alpha isoform (Homo sapiens), P42336 [I800L]
[18] = target: Tyrosine-protein kinase Lyn (Homo sapiens) (UniProt P07948)
[19] = system: Leucine-rich repeat serine/threonine-protein kinase 2 (Homo sapiens), Q5S007 [G2019S]
[20] = target: Death-associated protein kinase 2 (Homo sapiens) (UniProt Q9UIK4)
[21] = target: MAP/microtubule affinity-regulating kinase 4 (Homo sapiens) (UniProt Q96L34)
[22] = system: Tyrosine-protein kinase ABL1 (Homo sapiens), P00519 [E255K]
[23] = target: Serine/threonine-protein kinase MRCK beta (Homo sapiens) (UniProt Q9Y5S2)
[24] = target: Serine/threonine-protein kinase Sgk3 (Homo sapiens) (UniProt Q96BR1)
[25] = target: TRAF2 and NCK-interacting protein kinase (Homo sapiens) (UniProt Q9UKE5)
[26] = target: Mitogen-activated protein kinase kinase kinase 19 (Homo sapiens) (UniProt Q56UN5)
[27] = target: Protein kinase C delta type (Homo sapiens) (UniProt Q05655)
[28] = target: Tyrosine-protein kinase Blk (Homo sapiens) (UniProt P51451)
[29] = target: Serine/threonine-protein kinase 24 (Homo sapiens) (UniProt Q9Y6E0)
[30] = target: Mitogen-activated protein kinase kinase kinase 20 (Homo sapiens) (UniProt Q9NYL2)
[31] = target: Cyclin-dependent kinase 4 (Homo sapiens) (UniProt P11802)
[32] = target: Mitogen-activated protein kinase 12 (Homo sapiens) (UniProt P53778)
[33] = target: RAC-beta serine/threonine-protein kinase (Homo sapiens) (UniProt P31751)
[34] = target: Inhibitor of nuclear factor kappa-B kinase subunit alpha (Homo sapiens) (UniProt O15111)
[35] = target: Cyclin-dependent kinase 7 (Homo sapiens) (UniProt P50613)
[36] = target: Tyrosine-protein kinase ABL2 (Homo sapiens) (UniProt P42684)
[37] = system: Epidermal growth factor receptor (Homo sapiens), P00533 [T790M]
[38] = target: Serine/threonine-protein kinase pim-3 (Homo sapiens) (UniProt Q86V86)
[39] = target: Dual specificity tyrosine-phosphorylation-regulated kinase 1A (Homo sapiens) (UniProt Q13627)
[40] = system: Mast/stem cell growth factor receptor Kit (Homo sapiens), P10721 [L576P]
[41] = target: Non-receptor tyrosine-protein kinase TYK2 (Homo sapiens) (UniProt P29597); remark: listed apart in the source
[42] = target: Mitogen-activated protein kinase kinase kinase 3 (Homo sapiens) (UniProt Q99759)
[43] = target: Tyrosine-protein kinase ZAP-70 (Homo sapiens) (UniProt P43403)
[44] = target: Dual specificity mitogen-activated protein kinase kinase 7 (Homo sapiens) (UniProt O14733)
[45] = system: Tyrosine-protein kinase ABL1 (Homo sapiens), P00519 [Q252H]

Measured: residual activity

Non-receptor tyrosine-protein kinase TYK2 (Homo sapiens), sequence (P29597 whole entry, canonical isoform): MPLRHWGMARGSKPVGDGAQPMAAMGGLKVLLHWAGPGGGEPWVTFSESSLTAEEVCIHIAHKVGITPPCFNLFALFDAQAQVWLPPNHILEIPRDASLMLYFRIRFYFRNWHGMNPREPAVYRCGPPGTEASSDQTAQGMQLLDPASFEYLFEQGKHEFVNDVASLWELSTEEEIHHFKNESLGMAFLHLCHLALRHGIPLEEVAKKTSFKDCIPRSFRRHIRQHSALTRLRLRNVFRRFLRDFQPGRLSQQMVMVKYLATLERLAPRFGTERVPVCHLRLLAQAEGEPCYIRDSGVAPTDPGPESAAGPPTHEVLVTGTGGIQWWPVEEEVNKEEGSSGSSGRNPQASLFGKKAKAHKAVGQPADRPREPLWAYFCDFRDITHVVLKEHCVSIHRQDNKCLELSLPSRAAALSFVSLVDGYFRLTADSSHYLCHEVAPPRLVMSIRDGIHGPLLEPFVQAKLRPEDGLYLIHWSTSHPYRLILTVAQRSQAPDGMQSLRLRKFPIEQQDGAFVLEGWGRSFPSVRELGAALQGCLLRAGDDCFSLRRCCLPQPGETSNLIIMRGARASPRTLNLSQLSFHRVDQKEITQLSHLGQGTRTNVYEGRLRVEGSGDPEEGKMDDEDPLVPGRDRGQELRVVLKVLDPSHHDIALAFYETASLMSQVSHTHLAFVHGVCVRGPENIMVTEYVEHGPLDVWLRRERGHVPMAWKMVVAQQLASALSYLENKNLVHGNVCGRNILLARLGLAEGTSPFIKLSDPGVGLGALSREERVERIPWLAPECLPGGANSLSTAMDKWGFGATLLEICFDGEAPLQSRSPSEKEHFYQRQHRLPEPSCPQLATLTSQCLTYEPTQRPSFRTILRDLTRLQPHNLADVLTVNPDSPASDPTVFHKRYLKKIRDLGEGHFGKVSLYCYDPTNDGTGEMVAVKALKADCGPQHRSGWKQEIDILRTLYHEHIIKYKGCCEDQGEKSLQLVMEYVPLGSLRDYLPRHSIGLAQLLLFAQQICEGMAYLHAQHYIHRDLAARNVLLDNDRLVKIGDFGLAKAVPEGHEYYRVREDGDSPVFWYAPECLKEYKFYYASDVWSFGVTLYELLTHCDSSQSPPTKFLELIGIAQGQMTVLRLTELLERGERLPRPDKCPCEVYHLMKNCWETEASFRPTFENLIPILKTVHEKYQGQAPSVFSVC
Cyclin-dependent kinase 5 (Homo sapiens), sequence (Q00535 whole entry, looked up): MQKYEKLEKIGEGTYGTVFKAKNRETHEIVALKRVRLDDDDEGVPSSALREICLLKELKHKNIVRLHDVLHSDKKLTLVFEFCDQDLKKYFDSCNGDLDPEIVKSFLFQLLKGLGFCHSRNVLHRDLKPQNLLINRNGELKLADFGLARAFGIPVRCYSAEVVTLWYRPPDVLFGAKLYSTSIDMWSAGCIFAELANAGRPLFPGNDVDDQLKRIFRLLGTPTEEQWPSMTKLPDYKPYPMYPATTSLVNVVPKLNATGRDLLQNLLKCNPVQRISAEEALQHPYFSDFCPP
Mitogen-activated protein kinase kinase kinase 3 (Homo sapiens), sequence (Q99759 whole entry): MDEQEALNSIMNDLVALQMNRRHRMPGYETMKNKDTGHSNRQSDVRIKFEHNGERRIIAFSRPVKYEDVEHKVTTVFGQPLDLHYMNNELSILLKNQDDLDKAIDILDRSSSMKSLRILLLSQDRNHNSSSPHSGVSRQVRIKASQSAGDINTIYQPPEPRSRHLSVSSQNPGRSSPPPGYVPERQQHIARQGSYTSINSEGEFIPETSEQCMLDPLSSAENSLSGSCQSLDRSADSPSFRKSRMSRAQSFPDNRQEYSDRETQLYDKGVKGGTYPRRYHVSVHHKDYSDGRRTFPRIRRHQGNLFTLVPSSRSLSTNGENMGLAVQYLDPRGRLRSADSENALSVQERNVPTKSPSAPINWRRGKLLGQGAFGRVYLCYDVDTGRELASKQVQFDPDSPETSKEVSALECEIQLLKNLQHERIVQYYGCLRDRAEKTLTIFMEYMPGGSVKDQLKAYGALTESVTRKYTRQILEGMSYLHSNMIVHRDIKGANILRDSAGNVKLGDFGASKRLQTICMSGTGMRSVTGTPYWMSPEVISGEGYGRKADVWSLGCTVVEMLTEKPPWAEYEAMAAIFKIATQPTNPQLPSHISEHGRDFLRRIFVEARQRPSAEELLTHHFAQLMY
Tyrosine-protein kinase ABL2 (Homo sapiens), sequence (P42684 whole entry): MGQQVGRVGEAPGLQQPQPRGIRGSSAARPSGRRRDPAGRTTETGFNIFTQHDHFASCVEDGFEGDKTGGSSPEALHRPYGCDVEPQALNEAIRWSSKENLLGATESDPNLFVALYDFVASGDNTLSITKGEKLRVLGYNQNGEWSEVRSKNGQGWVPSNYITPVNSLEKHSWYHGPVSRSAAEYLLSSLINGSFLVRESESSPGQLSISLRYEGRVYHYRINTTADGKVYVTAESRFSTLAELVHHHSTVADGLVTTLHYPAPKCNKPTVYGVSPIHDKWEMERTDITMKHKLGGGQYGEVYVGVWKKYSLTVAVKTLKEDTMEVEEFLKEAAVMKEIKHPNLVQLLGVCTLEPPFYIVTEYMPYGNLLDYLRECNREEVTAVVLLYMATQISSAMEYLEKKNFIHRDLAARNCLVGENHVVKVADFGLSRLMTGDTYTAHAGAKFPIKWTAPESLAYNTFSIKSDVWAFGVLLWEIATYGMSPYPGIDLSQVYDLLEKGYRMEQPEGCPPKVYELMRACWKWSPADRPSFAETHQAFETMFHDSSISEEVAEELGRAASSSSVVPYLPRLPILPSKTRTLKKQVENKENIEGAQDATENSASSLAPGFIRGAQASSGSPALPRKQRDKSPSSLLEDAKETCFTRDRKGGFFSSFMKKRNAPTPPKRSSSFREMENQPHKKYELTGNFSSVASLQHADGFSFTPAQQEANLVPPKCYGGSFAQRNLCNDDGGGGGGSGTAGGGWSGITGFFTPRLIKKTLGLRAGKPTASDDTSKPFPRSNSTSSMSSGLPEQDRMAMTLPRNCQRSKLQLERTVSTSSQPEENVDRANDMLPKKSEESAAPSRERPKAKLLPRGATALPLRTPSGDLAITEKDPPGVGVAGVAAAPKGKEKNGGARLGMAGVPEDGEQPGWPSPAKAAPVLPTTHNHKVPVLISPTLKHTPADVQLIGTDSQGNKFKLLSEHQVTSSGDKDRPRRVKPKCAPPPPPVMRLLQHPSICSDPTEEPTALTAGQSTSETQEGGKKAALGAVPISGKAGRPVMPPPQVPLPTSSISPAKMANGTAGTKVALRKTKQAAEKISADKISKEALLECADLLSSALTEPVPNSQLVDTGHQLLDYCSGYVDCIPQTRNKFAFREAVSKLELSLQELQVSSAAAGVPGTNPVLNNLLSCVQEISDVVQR
Calcium/calmodulin-dependent protein kinase type 1B (Homo sapiens), sequence (Q6P2M8 whole entry, canonical isoform): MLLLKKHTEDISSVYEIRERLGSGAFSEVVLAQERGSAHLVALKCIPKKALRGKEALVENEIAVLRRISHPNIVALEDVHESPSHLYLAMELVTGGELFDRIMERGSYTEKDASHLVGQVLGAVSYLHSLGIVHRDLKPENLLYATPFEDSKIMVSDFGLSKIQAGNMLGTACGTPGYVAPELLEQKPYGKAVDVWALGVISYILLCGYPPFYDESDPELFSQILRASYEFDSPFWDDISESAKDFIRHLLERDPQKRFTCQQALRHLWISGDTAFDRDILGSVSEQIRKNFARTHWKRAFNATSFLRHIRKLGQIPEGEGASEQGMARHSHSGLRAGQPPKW
Inhibitor of nuclear factor kappa-B kinase subunit alpha (Homo sapiens), sequence (O15111 whole entry): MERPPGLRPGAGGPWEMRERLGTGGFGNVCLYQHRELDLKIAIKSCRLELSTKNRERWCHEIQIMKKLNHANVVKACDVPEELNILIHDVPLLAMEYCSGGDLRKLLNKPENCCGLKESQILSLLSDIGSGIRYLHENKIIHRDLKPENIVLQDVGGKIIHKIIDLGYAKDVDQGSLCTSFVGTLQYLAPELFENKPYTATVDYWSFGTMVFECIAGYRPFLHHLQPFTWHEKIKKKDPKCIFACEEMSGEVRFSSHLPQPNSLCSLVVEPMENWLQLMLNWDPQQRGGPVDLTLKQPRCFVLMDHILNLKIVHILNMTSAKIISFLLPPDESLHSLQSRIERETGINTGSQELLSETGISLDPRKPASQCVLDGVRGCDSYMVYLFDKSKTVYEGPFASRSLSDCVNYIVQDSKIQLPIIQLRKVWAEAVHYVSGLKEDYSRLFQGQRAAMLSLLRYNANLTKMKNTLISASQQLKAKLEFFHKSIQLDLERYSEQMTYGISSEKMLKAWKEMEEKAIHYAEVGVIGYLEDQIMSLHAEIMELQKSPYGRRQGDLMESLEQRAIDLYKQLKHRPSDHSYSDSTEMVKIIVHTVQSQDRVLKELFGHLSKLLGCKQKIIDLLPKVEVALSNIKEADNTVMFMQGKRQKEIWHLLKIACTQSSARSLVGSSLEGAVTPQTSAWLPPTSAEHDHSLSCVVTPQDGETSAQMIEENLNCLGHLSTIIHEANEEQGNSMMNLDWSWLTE
Tyrosine-protein kinase Lyn (Homo sapiens), sequence (P07948 2-512 limits assumed): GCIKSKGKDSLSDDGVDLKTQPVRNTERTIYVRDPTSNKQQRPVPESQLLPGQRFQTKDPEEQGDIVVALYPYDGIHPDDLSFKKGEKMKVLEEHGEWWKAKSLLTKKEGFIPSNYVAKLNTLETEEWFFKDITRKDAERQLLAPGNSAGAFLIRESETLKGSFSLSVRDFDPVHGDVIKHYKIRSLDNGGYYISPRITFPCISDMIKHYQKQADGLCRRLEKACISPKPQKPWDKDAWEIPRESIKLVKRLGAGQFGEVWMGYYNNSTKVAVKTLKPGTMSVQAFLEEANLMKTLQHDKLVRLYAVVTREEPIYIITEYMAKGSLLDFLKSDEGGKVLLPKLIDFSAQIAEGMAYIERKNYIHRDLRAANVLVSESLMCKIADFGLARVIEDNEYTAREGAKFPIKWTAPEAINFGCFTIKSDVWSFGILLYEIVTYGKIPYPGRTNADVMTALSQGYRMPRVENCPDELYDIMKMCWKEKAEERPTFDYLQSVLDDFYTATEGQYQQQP

Cc1nccc(COC(=O)N2C[C@@H]3[C@@H](CNC(=O)c4ccc5[nH]nnc5c4)[C@@H]3C2)n1 [BI 3017]
inactive: [1] 86% | [2] 79% | [3] 83% | [4] 100% | [5] 100% | [6] 85% | [7] 93% | [8] 92% | [9] 97% | [10] 100% | [11] 93% | [12] 100% | [13] 100% | [14] 66% | [15] 92% | [16] 100% | [17] 73% | [18] 100% | [19] 82% | [20] 82% | [21] 85% | [22] 89% | [23] 82% | [24] 100% | [25] 100% | [26] 90% | [27] 95% | [28] 93% | [29] 90% | [30] 90% | [31] 78% | [32] 79% | [33] 98% | [34] 100% | [35] 78% | [36] 90% | [37] 91% | [38] 97% | [39] 81% | [40] 89% | [41] 82% | [42] 91% | [43] 97% | [44] 100% | [45] 100%

O=C(NC[C@@H]1[C@H]2CN(C(=O)OCc3cc(C(F)(F)F)cc(C(F)(F)F)c3)C[C@@H]12)c1ccc2[nH]nnc2c1 [BI 2545]
inactive: [1] 90% | [2] 100% | [3] 100% | [4] 92% | [5] 100% | [6] 91% | [7] 95% | [8] 100% | [9] 94% | [10] 75% | [11] 100% | [12] 81% | [13] 100% | [14] 89% | [15] 85% | [16] 100% | [17] 83% | [18] 100% | [19] 91% | [20] 85% | [21] 94% | [22] 92% | [23] 100% | [24] 84% | [25] 98% | [26] 100% | [27] 93% | [28] 100% | [29] 90% | [30] 86% | [31] 97% | [32] 100% | [33] 100% | [34] 100% | [35] 92% | [36] 98% | [37] 78% | [38] 100% | [39] 86% | [40] 92% | [41] 100% | [42] 94% | [43] 60% | [44] 95% | [45] 78%
